Experimental data: US20230271956A1, “AMIDE DERIVATIVES” (Merck Patent GmbH, priority 2020, published 2023)

Columns and labels:
[1] = target: T1, ACSS2 (Homo sapiens, UniProt Q9NR19); assay: Cellular assay of 14C acetate incorporation into histones (IC50 ACSS2 cellular histone); type: cell-based; conditions: HCT-15 cells
T1 construct: endogenous fatty acid synthesis activity in the human HCT-15 cancer cell line; endogenous in cells; host or cells: HCT-15
Procedure, shortened: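 Human HCT-15 cells preincubated 1 h with compound (0.25% DMSO final), then pulsed 3 h with 14C-acetate. Histones were acid-extracted (0.2 M HCl, overnight, 4° C) after Triton lysis in sodium-butyrate buffer; incorporated 14C counted by liquid scintillation (CPM) to give IC50.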

[2] = tested on: CHO-K1 cells; assay: Micronucleus assay (MNT) in vitro; type: cell-based; parameters: key: A: negative, putative negative (micronuclei detected beyond threshold of 60% cyctotoxicity); B: positive; conditions: 24 hrs treatment, 0.2 µM to 100 µM
Method: The in vitro MNT assay is performed in CHO-K1 cells due to their stable and welI-characterized karyotype, high sensitivity and suitability for a high content imaging approach. They have a basal spontaneous micronucleus frequency of 3-4%.
24 hrs after plating CHO-K1 cells are treated with test compounds for 24 hrs (in duplicates; fixed concentration ranges from 0.2 µM to 100 µM in 2-fold dilution steps). After a medium change cells are incubated for 24 hrs with Cytochalasin B to block cytokinesis and are then fixed and nuclei / micronuclei visualized with a DNA stain. Images are acquired with the Molecular Devices high content imagers IXU or IXM and are analyzed with the dedicated MetaXpress software micronucleus module. Criteria for scoring of micronuclei (MN) are the following: • diameter of the MN should be less than ⅓ of the main nucleus • MN should be separated from or marginally overlap with main nucleus (= no blebs) • MN should have similar staining as the main nucleus At least 1000 binucleated cells are evaluated per treatment replicate. Mitomycin C is used as reference stimulator of micronucleus formation. Cytotoxicity is evaluated in parallel and defined by comparing total nuclei count in compound-treated samples to neutral control samples treated with vehicle only (1% DMSO) (100% cytotoxicity means all cells are dead or lost).
A test compound is regarded as POSITIVE if generation of micronuclei and exhibition of less than 60% cytotoxicity at the same concentration can be observed.
Compounds are scored only in the soluble concentration range. Experimental data of the compounds shown in Table 1 in the MNT assay are shown in Table 2 below and classified in the following groups: […]

T1 sequence (Q9NR19 whole entry): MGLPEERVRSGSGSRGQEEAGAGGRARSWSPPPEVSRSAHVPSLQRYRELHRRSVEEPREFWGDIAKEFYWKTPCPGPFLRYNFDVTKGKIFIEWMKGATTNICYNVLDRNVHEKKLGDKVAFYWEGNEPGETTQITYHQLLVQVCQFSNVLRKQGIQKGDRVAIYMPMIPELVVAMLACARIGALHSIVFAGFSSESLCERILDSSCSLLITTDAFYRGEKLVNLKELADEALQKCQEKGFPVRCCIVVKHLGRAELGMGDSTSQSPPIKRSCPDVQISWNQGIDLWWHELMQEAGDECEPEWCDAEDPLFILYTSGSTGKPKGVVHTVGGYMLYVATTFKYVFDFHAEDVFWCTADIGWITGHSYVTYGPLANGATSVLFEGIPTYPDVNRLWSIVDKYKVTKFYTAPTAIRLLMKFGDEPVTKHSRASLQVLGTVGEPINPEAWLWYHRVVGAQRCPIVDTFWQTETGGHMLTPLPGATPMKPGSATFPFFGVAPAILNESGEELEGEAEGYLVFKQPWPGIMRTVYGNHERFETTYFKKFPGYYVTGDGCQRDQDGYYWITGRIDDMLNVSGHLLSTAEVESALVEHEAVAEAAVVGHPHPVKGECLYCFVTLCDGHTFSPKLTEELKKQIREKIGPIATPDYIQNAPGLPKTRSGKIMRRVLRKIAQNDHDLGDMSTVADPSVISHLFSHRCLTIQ

| Structure (SMILES) | IC50 [1] | MNT [2] |
| --- | --- | --- |
| CCc1c(C(O)(c2ccccc2F)c2ccccc2F)nn2cc(OC)c(C(=O)Nc3cnn(CC)c3)cc12 [Compound 4, 2-[Bis-(2-fluoro-phenyl)-hydroxy-methyl]-3-ethyl-6-methoxy-pyrazolo[1,5-a]pyridine-5-carboxylic acid (1-ethyl-1H-pyrazol-4-yl)-amide] | 1 to 10 nM | A |
| CCc1c(C(O)(c2ccccc2)c2ccccc2)nc2cc(Cl)c(C(=O)Nc3ncn(CC)n3)cn12 [Compound 14, 7-Chloro-3-ethyl-2-(hydroxy-diphenylmethyl)-imidazo[1,2-a]pyridine-6-carboxylic acid (1-ethyl-1H-[1,2,4]triazol-3-yl)-amide] | 1 to 10 nM | A |
| CCn1cnc(NC(=O)c2cc3c(nc2OC)nc(C(O)(c2ccccc2F)c2ccc(OC(F)F)cc2F)n3CC)n1 (racemic) [Compound 94, 2-{[4-(difluoromethoxy)-2-fluorophenyl](2-fluorophenyl)hydroxymethyl}-1-ethyl-N-(1-ethyl-1H-1,2,4-triazol-3-yl)-5-methoxy-1H-imidazo[4,5-b]pyridine-6-carboxamide] | 1 to 10 nM | A |
| CCc1c(C(O)(c2ccccc2)c2ccccc2)nc2cc(F)c(C(=O)Nc3ncn(CC)n3)cn12 [Compound 20, 3-Ethyl-7-fluoro-2-(hydroxy-diphenylmethyl)-imidazo[1,2-a]pyridine-6-carboxylic acid (1-ethyl-1H-[1,2,4]triazol-3-yl)-amide] | 0.01 to 1 nM | A |
| CCc1c(C(O)(c2ccccc2)c2ccccn2)nc2cc(OC)c(C(=O)Nc3ncn(CC)n3)cn12 (racemic) [Compound 16, 3-Ethyl-2-(hydroxy-phenyl-pyridin-2-yl-methyl)-7-methoxy-imidazo[1,2-a]pyridine-6-carboxylic acid (1-ethyl-1H-[1,2,4]triazol-3-yl)-amide] | 1 to 10 nM | A |
| CCn1cnc(NC(=O)c2cc3c(nc2OC)nc(C(O)(c2ccccc2)c2ccccn2)n3CC)n1 (single isomer, unassigned) [Compound 53, 1-ethyl-N-(1-ethyl-1H-1,2,4-triazol-3-yl)-2-[hydroxy(phenyl)(pyridin-2-yl)methyl]-5-methoxy-1H-imidazo[4,5-b]pyridine-6-carboxamide] | 0.01 to 1 nM | in-conclusive |
| CCc1c(C(O)(c2ccccc2)c2ccccc2)nc2ccc(C(=O)Nc3ncn(CC)n3)cn12 [Compound 25, 3-Ethyl-2-(hydroxy-diphenyl-methyl)-imidazo[1,2-a]pyridine-6-carboxylic acid (1-ethyl-1H-[1,2,4]triazol-3-yl)-amide] | 0.01 to 1 nM | A |
| CCc1c(C(O)(c2ccccc2F)c2ccccc2F)nc2cc(Cl)c(C(=O)Nc3ncn(CC)n3)cn12 [Compound 31, 2-[Bis-(2-fluoro-phenyl)-hydroxy-methyl]-7-chloro-3-ethyl-imidazo[1,2-a]pyridine-6-carboxylic acid (1-ethyl-1H-[1,2,4]triazol-3-yl)-amide] | 0.01 to 1 nM | A |
| CCc1c(C(O)(c2ccccc2)c2ccccc2)nn2ccc(C(=O)Nc3ncn(CC)n3)cc12 [Compound 9, 3-Ethyl-2-(hydroxy-diphenyl-methyl)-pyrazolo[1,5-a]pyridine-5-carboxylic acid (1-ethyl-1H-[1,2,4]triazol-3-yl)-amide] | 0.01 to 1 nM | B |
